Data reported in PubChem BioAssay (NCI).
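Tested at 5 concentrations; 48 h exposure; 96-well plates; endpoints linearly interpolated, else capped at highest concentration. The concentration for 50% growth inhibition is given as GI50. TGI denotes the concentration required for complete inhibition of growth.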

Assays:
Assay in all cases: growth of human tumour cells (NCI), 48 h
[1] = tested on: M14 melanoma
[2] = tested on: SK-MEL-2 melanoma
[3] = tested on: TK-10 renal
[4] = tested on: SF-268 CNS
[5] = tested on: MOLT-4 leukemia
[6] = tested on: UACC-257 melanoma
[7] = tested on: NCI-H522 lung
[8] = tested on: RXF 393 renal
[9] = tested on: A549 NSCLC
[10] = tested on: 786-0 renal
[11] = tested on: OVCAR-5 ovarian
[12] = tested on: SNB-75 CNS
[13] = tested on: HCT-116 colon
[14] = tested on: MCF7 breast
[15] = tested on: HOP-62 NSCLC
[16] = tested on: HOP-92 NSCLC
[17] = tested on: SK-OV-3 ovarian
[18] = tested on: NCI-H226 lung
[19] = tested on: NCI-H460 lung
[20] = tested on: OVCAR-8 ovarian
[21] = tested on: MALME-3M melanoma
[22] = tested on: HS 578T breast
[23] = tested on: RPMI-8226 leukemia
[24] = tested on: CAKI-1 renal
[25] = tested on: MDA-MB-435
[26] = tested on: BT-549 breast
[27] = tested on: SF-295 CNS
[28] = tested on: OVCAR-3 ovarian
[29] = tested on: UO-31 renal
[30] = tested on: T-47D breast
[31] = tested on: OVCAR-4 ovarian
[32] = tested on: NCI-H23 lung
[33] = tested on: LOX IMVI melanoma
[34] = tested on: ACHN renal
[35] = tested on: EKVX NSCLC
[36] = tested on: A498 renal
[37] = tested on: K-562 leukemia
[38] = tested on: SF-539 CNS
[39] = tested on: DU-145 prostate
[40] = tested on: SW-620 colon
[41] = tested on: COLO 205 colon
[42] = tested on: SK-MEL-5 melanoma
[43] = tested on: NCI/ADR-RES ovarian
[44] = tested on: CCRF-CEM leukemia
[45] = tested on: HCT-15 colon
[46] = tested on: U251 CNS
[47] = tested on: SK-MEL-28 melanoma
[48] = tested on: SNB-19 CNS
[49] = tested on: HL-60(TB) leukemia
[50] = tested on: IGROV1 ovarian
[51] = tested on: HT29 colon
[52] = tested on: SR leukemia
[53] = tested on: MDA-MB-231 breast
[54] = tested on: SN12C renal
[55] = tested on: KM12 colon

**Q.** With `CCOC(=O)C1=C(C)N(c2ccc(F)cc2F)[C@]2(C#N)C(O)=C(Cl)C(Cl)=C(O)[C@]12C#N` as the compound, how does the GI50 [1] read?
**A.** > 100 µM

**Q.** And the TGI [1]?
**A.** > 100 µM

**Q.** And the GI50 [2]?
**A.** > 100 µM

**Q.** What about the TGI [2] of the same compound?
**A.** > 100 µM

**Q.** What about the GI50 [3] of the same compound?
**A.** > 100 µM

**Q.** What about the TGI [3] of the same compound?
**A.** > 100 µM

**Q.** And the GI50 [4]?
**A.** > 100 µM

**Q.** What about the TGI [4] of the same compound?
**A.** > 100 µM

**Q.** What about the GI50 [5] of the same compound?
**A.** > 100 µM

**Q.** What about the TGI [5] of the same compound?
**A.** > 100 µM

**Q.** What about the GI50 [6] of the same compound?
**A.** > 100 µM

**Q.** What about the TGI [6] of the same compound?
**A.** > 100 µM

**Q.** And the GI50 [7]?
**A.** > 100 µM

**Q.** What about the TGI [7] of the same compound?
**A.** > 100 µM

**Q.** And the GI50 [8]?
**A.** > 100 µM

**Q.** And the TGI [8]?
**A.** > 100 µM

**Q.** And the GI50 [9]?
**A.** > 100 µM

**Q.** What about the TGI [9] of the same compound?
**A.** > 100 µM

**Q.** What about the GI50 [10] of the same compound?
**A.** > 100 µM

**Q.** What about the TGI [10] of the same compound?
**A.** > 100 µM

**Q.** And the GI50 [11]?
**A.** 20.5 µM

**Q.** What about the TGI [11] of the same compound?
**A.** > 100 µM

**Q.** What about the GI50 [12] of the same compound?
**A.** > 100 µM

**Q.** What about the TGI [12] of the same compound?
**A.** > 100 µM

**Q.** What about the GI50 [13] of the same compound?
**A.** > 100 µM

**Q.** And the TGI [13]?
**A.** > 100 µM

**Q.** What about the GI50 [14] of the same compound?
**A.** > 100 µM

**Q.** What about the TGI [14] of the same compound?
**A.** > 100 µM

**Q.** What about the GI50 [15] of the same compound?
**A.** > 100 µM

**Q.** And the TGI [15]?
**A.** > 100 µM

**Q.** What about the GI50 [16] of the same compound?
**A.** 1.77 µM

**Q.** And the TGI [16]?
**A.** > 100 µM

**Q.** What about the GI50 [17] of the same compound?
**A.** > 100 µM

**Q.** What about the TGI [17] of the same compound?
**A.** > 100 µM

**Q.** What about the GI50 [18] of the same compound?
**A.** > 100 µM

**Q.** And the TGI [18]?
**A.** > 100 µM

**Q.** What about the GI50 [19] of the same compound?
**A.** > 100 µM

**Q.** And the TGI [19]?
**A.** > 100 µM

**Q.** What about the GI50 [20] of the same compound?
**A.** > 100 µM

**Q.** What about the TGI [20] of the same compound?
**A.** > 100 µM

**Q.** What about the GI50 [21] of the same compound?
**A.** > 100 µM

**Q.** And the TGI [21]?
**A.** > 100 µM

**Q.** What about the GI50 [22] of the same compound?
**A.** > 100 µM

**Q.** And the TGI [22]?
**A.** > 100 µM

**Q.** And the GI50 [23]?
**A.** 27.1 µM

**Q.** What about the TGI [23] of the same compound?
**A.** > 100 µM

**Q.** What about the GI50 [24] of the same compound?
**A.** > 100 µM

**Q.** What about the TGI [24] of the same compound?
**A.** > 100 µM

**Q.** What about the GI50 [25] of the same compound?
**A.** > 100 µM

**Q.** What about the TGI [25] of the same compound?
**A.** > 100 µM

**Q.** And the GI50 [26]?
**A.** > 100 µM

**Q.** What about the TGI [26] of the same compound?
**A.** > 100 µM

**Q.** What about the GI50 [27] of the same compound?
**A.** > 100 µM

**Q.** What about the TGI [27] of the same compound?
**A.** > 100 µM

**Q.** And the GI50 [28]?
**A.** > 100 µM

**Q.** What about the TGI [28] of the same compound?
**A.** > 100 µM

**Q.** And the GI50 [29]?
**A.** > 100 µM

**Q.** What about the TGI [29] of the same compound?
**A.** > 100 µM

**Q.** What about the GI50 [30] of the same compound?
**A.** > 100 µM

**Q.** What about the TGI [30] of the same compound?
**A.** > 100 µM

**Q.** What about the GI50 [31] of the same compound?
**A.** > 100 µM

**Q.** What about the TGI [31] of the same compound?
**A.** > 100 µM

**Q.** What about the GI50 [32] of the same compound?
**A.** > 100 µM

**Q.** What about the TGI [32] of the same compound?
**A.** > 100 µM

**Q.** What about the GI50 [33] of the same compound?
**A.** > 100 µM

**Q.** And the TGI [33]?
**A.** > 100 µM

**Q.** And the GI50 [34]?
**A.** > 100 µM

**Q.** And the TGI [34]?
**A.** > 100 µM

**Q.** And the GI50 [35]?
**A.** > 100 µM

**Q.** What about the TGI [35] of the same compound?
**A.** > 100 µM

**Q.** What about the GI50 [36] of the same compound?
**A.** > 100 µM

**Q.** What about the TGI [36] of the same compound?
**A.** > 100 µM

**Q.** And the GI50 [37]?
**A.** 88 µM

**Q.** What about the TGI [37] of the same compound?
**A.** > 100 µM

**Q.** What about the GI50 [38] of the same compound?
**A.** > 100 µM

**Q.** And the TGI [38]?
**A.** > 100 µM

**Q.** What about the GI50 [39] of the same compound?
**A.** > 100 µM

**Q.** What about the TGI [39] of the same compound?
**A.** > 100 µM

**Q.** What about the GI50 [40] of the same compound?
**A.** > 100 µM

**Q.** What about the TGI [40] of the same compound?
**A.** > 100 µM

**Q.** And the GI50 [41]?
**A.** > 100 µM

**Q.** And the TGI [41]?
**A.** > 100 µM

**Q.** What about the GI50 [42] of the same compound?
**A.** > 100 µM

**Q.** And the TGI [42]?
**A.** > 100 µM

**Q.** What about the GI50 [43] of the same compound?
**A.** 5.61 µM

**Q.** And the TGI [43]?
**A.** > 100 µM

**Q.** And the GI50 [44]?
**A.** 28.8 µM

**Q.** And the TGI [44]?
**A.** > 100 µM

**Q.** And the GI50 [45]?
**A.** > 100 µM

**Q.** And the TGI [45]?
**A.** > 100 µM

**Q.** What about the GI50 [46] of the same compound?
**A.** > 100 µM

**Q.** And the TGI [46]?
**A.** > 100 µM

**Q.** What about the GI50 [47] of the same compound?
**A.** > 100 µM

**Q.** And the TGI [47]?
**A.** > 100 µM

**Q.** And the GI50 [48]?
**A.** > 100 µM

**Q.** What about the TGI [48] of the same compound?
**A.** > 100 µM

**Q.** And the GI50 [49]?
**A.** > 100 µM

**Q.** What about the TGI [49] of the same compound?
**A.** > 100 µM

**Q.** What about the GI50 [50] of the same compound?
**A.** > 100 µM

**Q.** What about the TGI [50] of the same compound?
**A.** > 100 µM

**Q.** What about the GI50 [51] of the same compound?
**A.** > 100 µM

**Q.** And the TGI [51]?
**A.** > 100 µM

**Q.** And the GI50 [52]?
**A.** 34.5 µM

**Q.** What about the TGI [52] of the same compound?
**A.** 95.9 µM

**Q.** What about the GI50 [53] of the same compound?
**A.** > 100 µM

**Q.** What about the TGI [53] of the same compound?
**A.** > 100 µM

**Q.** And the GI50 [54]?
**A.** > 100 µM

**Q.** And the TGI [54]?
**A.** > 100 µM

**Q.** And the GI50 [55]?
**A.** > 100 µM

**Q.** And the TGI [55]?
**A.** > 100 µM
